For series [1], the system named is BAZ2A. Also noted: method as in PMID 25799074, PMID 25719566. The following applies: cited from earlier work.
The target of series [2] is T1, BAZ2A bromodomain (Homo sapiens, UniProt Q9UIF9).
T1 construct: made in house
T1 sequence (Q9UIF9 1793-1897 limits assumed): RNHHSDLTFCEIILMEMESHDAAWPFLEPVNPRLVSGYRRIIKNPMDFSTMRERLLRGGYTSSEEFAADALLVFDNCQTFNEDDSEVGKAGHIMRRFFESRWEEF
As to the kind of experiment: AlphaScreen competition binding assay (BAZ2A bromodomain binding to acetylated peptide). The following applies: single dose 100 μM; IC50 not determined; read-out: Residual activity when tested in single dose. (Alpha assays give light when donor and acceptor beads are brought close together.)

Series [3] deals with T1, BAZ2A bromodomain. Described as above. Here is the method: The 36 selected molecules were tested by AlphaScreen at single doses in duplicate. Six molecules (compounds 8, 9, 11, 14, 18, and 25) decreased binding of BAZ2A bromodomain to the acetylated peptide by at least 50% when tested at 500 μM. […]
AlphaScreen assay was conducted as detailed in [11]. […]

Series [4] has as its target T1, BAZ2A bromodomain. Kind of series: Isothermal titration calorimetry (ITC). The following applies: 25°C, 0.25% DMSO, racemic mixture, read-out: equilibrium dissociation constant (KD). The class given is binding. On the procedure:
(§1) Trigonal crystals were obtained by co-crystallization as described in the same work. Monoclinic crystals were obtained by co-crystallization with compound 4 of reference; a back-soaking procedure was then applied by incubating the crystal in the crystallization solution without inhibitors for 36-48 hours, and subsequently exposing it to the new ligand of interest for 12-24 hours.
(§2) Diffraction data were collected at the Elettra Synchrotron Light Source (Trieste, Italy), XRD1 and XRD2 beamlines, and at the ESRF (Grenoble, France), ID30-A1 beamline. Data were processed and structures were solved as described elsewhere. BAZ2A/cmp9 data have been corrected for diffraction anisotropy with STARANISO (https://staraniso.globalphasing.org/cgi-bin/staraniso.cgi).
(§3) Data collection and refinement statistics are reported in Suppl. Tables 3-6. Electron densities (2Fo-Fc polder OMIT map) for the bound inhibitors are shown in Suppl. Fig. 7.
(§4) AlphaScreen assay was conducted as detailed in [11]. All experiments were performed at least in […]
(§5) Isothermal Titration Calorimetry
(§6) ITC experiments were performed using an MicroCal PEAQ-IT C microcalorimeter (Malvern Panalytical , UK) at 25°C with a stirring speed of 750 rpm in 20mM Tris pH 7. 8, 0. 2 M NaCl, 0. 2 mM TCEP and 0. 25% DMSO. For each experiment, one 0. […]

In series [5] the target is T2, BAZ2B bromodomain (Homo sapiens, UniProt Q9UIF8).
T2 sequence (Q9UIF8 2060-2164 limits assumed): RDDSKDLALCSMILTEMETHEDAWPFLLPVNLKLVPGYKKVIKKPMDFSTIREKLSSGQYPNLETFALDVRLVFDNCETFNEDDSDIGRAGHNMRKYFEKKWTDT
As to the kind of experiment: AlphaScreen competition binding assay on the BAZ2B bromodomain. To be noted: AlphaScreen dose-response, Figure S6. On the procedure:
as §1, §2, §3, §4, §5, §6

Values joined by “and” are separate entries in the source; they are usually repeats but may differ in a detail not shown here. Identical values can stand only once.

Consider `Cn1cc(CCn2cnc(-c3cnn(C)c3)c2-c2ccc(C#N)cc2)cn1` [BAZ2-ICR], for which, in series [1], the “affinity for BAZ2A (in words)” value is listed as “very high nanomolar range”. In the case of `CCc1c(-c2csc(N3CCN(Cc4cnc(N)nc4)CC3)n2)[nH]c(C)c1C(C)=O` [Compound 94], in series [2], the remaining binding at 100 µM was more than 50%. For `CCc1c(-c2csc(N3CCNCC3C(=O)NCc3ncoc3C(C)C)n2)[nH]c(C)c1C(C)=O` (stereo not shown) [Compound 101], in series [2], the remaining binding at 100 µM is more than 50%.

For `CCc1c(-c2csc(N3CCNCC3C(=O)NC3CCC(C(N)=O)CC3)n2)[nH]c(C)c1C(C)=O` (stereo not shown) [Compound 103], in series [2], the remaining binding at 100 µM was more than 50%. As to `CCc1c(-c2csc(N3CCNCC3C(=O)NCCc3ccno3)n2)[nH]c(C)c1C(C)=O` (stereo not shown) [Compound 104], in series [3], the “ligand efficiency (LE)” value was 0.24 kcal/mol per heavy atom and the “lipophilic ligand efficiency (LLE)” value came out at 4.0. In addition, the IC50 in series [3] (AlphaScreen dose-response) was 4 ± 0.2 µM. Also, the “increase in potency with respect to 47” value in series [3] (from AlphaScreen IC50) amounted to 8 fold. Moreover, the equilibrium dissociation constant (Kd) in series [4] was 7.1 µM and 7 µM. For the same compound, in series [5], the IC50 worked out at 33.5 µM. With `CCc1c(-c2csc(N3CCNCC3C(=O)NCC3CC4(CCC4)C3)n2)[nH]c(C)c1C(C)=O` (stereo not shown) [Compound 106], in series [2], the remaining binding at 100 µM was more than 50%.

Turning to `CCc1c(-c2csc(N3CCNCC3C(=O)NCC3CC(C)C3)n2)[nH]c(C)c1C(C)=O` (stereo not shown) [Compound 114], the remaining binding at 100 µM in series [2] was more than 50%. As to `CCCOc1ccn2c(C(C)=O)cc(-c3ccccc3S(C)(=O)=O)c2c1` [GSK2801], in series [1], the “affinity for BAZ2A (in words)” value is recorded as “very high nanomolar range”.

The term IC50 denotes the concentration that gives 50% inhibition. Low readings indicate greater potency, high ones weaker potency. The term Kd denotes the free concentration of one partner at which half of the binding sites on the other are occupied at equilibrium, for simple one-to-one binding.

(Values after article PMC9465710, “Identification of a BAZ2A-Bromodomain Hit Compound by Fragment Growing” (ACS Medicinal Chemistry Letters, 2022).)
